In US6040331A, “Nerve cell protective agents” (Mochida Pharmaceutical Co., Ltd., priority 1996, dated 2000):
Converted amounts (≈) assume the structure as drawn. Counter-ions that a name gives are not always drawn. *1 amine or outer side, *2 acyl side, *3 side chain or, on linkers, in order; H or OH if unused. Where a SMILES comes first, the peptide text is derived from it. Bridges are numbered along the chain shown (N, C = ends). Roman numbers before positions name the chains, in order. [ ]: non-standard residue; d: D form. Actinocin(9to1) = Cc1c2oc3c(C)ccc(C(=O)[*:1])c3nc-2c(C(=O)[*:2])c(N)c1=O; NMeV = CN[C@H](C(=O)O)C(C)C; Sar = CNCC(=O)O

Tested on: neurons isolated from the cerebrum
Experiment: Naturally occurring neuronal death suppressing action (serum-free cultivation, Crystal Violet)
Format: cell-based, embryonic day 16 rats
Details: Rattus norvegicus, Neuron, 72 h; 0.3 μg/ml; serum-free, 3 days; read-out: Suppression of Naturally Occurring Neuronal Death
Procedure: The action of compounds to suppress the naturally occurring death of neurons was evaluated in terms of their effectiveness in suppressing or inhibiting the naturally occurring death of neurons as induced by exposing cultured neurons to serum-free cultivation conditions. An experiment was run by a method adapted from the method of Shimojo et al., Neurosci. Lett., 151, 170, 1993. Specifically, neurons were isolated from the cerebrum of embryonic day 16 rats in the usual manner, suspended in a DMEM/F12 medium containing 1% fetal bovine serum, seeded onto a polylysine-coated culture plate at a density of 5×10^4 cells per square centimeter and cultivated at 37° C. in 95% air+5% CO2. After one day of culture, the medium was replaced with a serum-free medium containing a compound to be tested and the cultivation was continued for 3 more days. Subsequently, the cells were fixed with 1% glutaraldehyde and their number was determined by calorimetric quantification using Crystal Violet (Anal. Biochem., 182, 16-19, 1989). The percent suppression of neuronal death by the test compound was determined by the following formula:
(§1) 100×(ODtest-ODcontrol)/(ODnormal-ODcontrol) (%)
where ODtest is the number of cells (absorbance) in the group of addition of test compound after serum removal, ODcontrol is the number of cells (absorbance) in a control group after serum removal, and ODnormal is the number of cells (absorbance) in a control (normal) group without serum removal.

SMILES	inhibition at 0.3 µg/mL
NC1CCc2c(-c3ccccc3O)[nH]c3cccc1c23 (stereo not drawn) [Example 185, 5-amino-2-(2-hydroxyphenyl)-1,3,4,5-tetrahydrobenz[cd]indole]	100%
NC1CCc2c(-c3ccccc3)[nH]c3ccc(O)c1c23 (stereo not drawn) [Example 174, 5-amino-6-hydroxy-2-phenyl-1,3,4,5-tetrahydrobenz[cd]indole]	64%
NC1CCc2c(-c3ccc(Cl)cc3)[nH]c3c(Cl)ccc1c23 (stereo not drawn) [Example 103, 5-amino-8-chloro-2-(4-chlorophenyl)-1,3,4,5-tetrahydrobenz[cd]indole]	56%
Cc1ccc(-c2[nH]c3cccc4c3c2CCC4N)cc1 (stereo not drawn) [Example 99, 5-amino-2-(4-methylphenyl)-1,3,4,5-tetrahydrobenz[cd]indole]	59%

Same assay, conditions: Rattus norvegicus, Neuron, 72 h; 1.0 μg/ml; serum-free, 3 days; read-out: Suppression of Naturally Occurring Neuronal Death

SMILES	inhibition at 1 µg/mL
c1ccc(-c2[nH]c3cccc4c3c2CCC4N2CCOCC2)cc1 (stereo not drawn) [Example 148, 5-morpholino-2-phenyl-1,3,4,5-tetrahydrobenz[cd]indole]	65%
c1ccc(CNC2CCc3c(-c4ccccc4)[nH]c4cccc2c34)cc1 (stereo not drawn) [Example 153, 5-(N-benzylamino)-2-phenyl-1,3,4,5-tetrahydrobenz[cd]indole]	100%
NC1CCc2c(-c3ccc(Cl)cc3)[nH]c3cccc1c23 (stereo not drawn) [Example 96, 5-amino-2-(4-chlorophenyl)-1,3,4,5-tetrahydrobenz[cd]indole]	37%
OC1CCN(C2CCc3c(-c4ccccc4)[nH]c4cccc2c34)CC1 (stereo not drawn) [Example 216, 5-(4-hydroxypiperidino)-2-phenyl-1,3,4,5-tetrahydrobenz[cd]indole]	75%
CNC1CCc2c(-c3ccccc3)[nH]c3cccc1c23 (stereo not drawn) [Example 130, 5-(N-methylamino)-2-phenyl-1,3,4,5-tetrahydrobenz[cd]indole]	76%

Same assay, conditions: Rattus norvegicus, Neuron, 72 h; 3.0 μg/ml; serum-free, 3 days; read-out: Suppression of Naturally Occurring Neuronal Death

SMILES	inhibition at 3 µg/mL
Cn1c(-c2ccccc2)c2c3c(cccc31)C(NCC(=O)O)CC2 (stereo not drawn) [Example 223, 5-[N-(carboxymethyl)]amino-1-methyl-2-phenyl-1,3,4,5-tetrahydrobenz[cd]indole hydrochloride]	81%
NC1CCc2c(-c3ccccc3)[nH]c3ccc(Br)c1c23 (stereo not drawn) [Example 87, 5-amino-6-bromo-2-phenyl-1,3,4,5-tetrahydrobenz[cd]indole]	84%
CN(C)C1CCc2c(-c3ccccc3)[nH]c3cccc1c23 (stereo not drawn) [Example 121, 5-(N,N-dimethylamino)2-phenyl-1,3,4,5-tetrahydrobenz[cd]indole]	72%
CCOC(=O)CNC1CCc2c(-c3ccccc3)n(C)c3cccc1c23 (stereo not drawn) [Example 244, 5-[N-(ethoxycarbonylmethyl)]amino-1-methyl-2-phenyl-1,3,4,5-tetrahydrobenz[cd]indole hydrochloride]	57%
c1ccc(-c2[nH]c3cccc4c3c2CCC4N2CCCCC2)cc1 (stereo not drawn) [Example 151, 2-phenyl-5-piperidino-1,3,4,5-tetrahydrobenz[cd]indole]	98%
CC(=O)NC1CCc2c(-c3ccccc3)[nH]c3cccc1c23 (stereo not drawn) [Example 124, 5-(N-acetylamino)-2-phenyl-1,3,4,5-tetrahydrobenz[cd]indole]	23%

Same assay, conditions: serum-free condition

SMILES	suppression of death of neurons under the serum-free condition (in words)
Cc1c2oc3c(C)ccc(C(=O)N[C@@H]4C(=O)N[C@H](C(C)C)C(=O)N5CCC[C@H]5C(=O)N(C)CC(=O)N(C)[C@@H](C(C)C)C(=O)O[C@@H]4C)c3nc-2c(C(=O)N[C@@H]2C(=O)N[C@H](C(C)C)C(=O)N3CCC[C@H]3C(=O)N(C)CC(=O)N(C)[C@@H](C(C)C)C(=O)O[C@@H]2C)c(N)c1=O [actinomycin D, reference compound] (I: T[dV]P[Sar][NMeV] / II: T[dV]P[Sar][NMeV]; ester I:1-I:C, II:1-II:C; linker I:N-II:N via Actinocin(9to1))	suppressed
C[C@@H]1C[C@@H]([C@H](O)CC2CC(=O)NC(=O)C2)C(=O)[C@@H](C)C1 [cycloheximide, reference compound]	suppressed
O=C(O)C1=CC(=C(c2ccc(O)c(C(=O)O)c2)c2ccc(O)c(C(=O)O)c2)C=CC1=O [aurin tricarboxylic acid, reference compound]	suppressed

Tested on: neurons isolated from the cerebrum
Experiment: Veratrine-induced neuronal death suppressing action (MTT)
Format: cell-based, embryonic day 16 rats
Details: Rattus norvegicus, Neuron; veratrine 0.35 mM; MTT after 24 h; probit method; read-out: IC50 (50% suppression of veratrine-induced neuronal death)
Procedure: The action of compounds to suppress the death of neurons induced by veratrine was evaluated in terms of their effectiveness in suppressing the neuronal death as induced by direct addition of veratrine. An experiment was run by a method adapted from the method of Powells et al., J. Pharmacol. Exp. Therapeutics, 255, 1117, 1987. Specifically, neurons were isolated from the cerebrum of embryonic day 16 rats in the usual manner, suspended in a MEM medium containing 10% fetal bovine serum, seeded onto a polylysine-coated culture plate at a density of 2.5×10^5 cells per square centimeter and cultivated at 37° C. in 95% air+5% CO2. Starting on the fifth day of cultivation, treatment was conducted with 10 μM of cytosine arabinoside for 2 days and the cultivation was continued until the 12th day, when a test was run as follows. The cells were treated with a buffer solution containing veratrine (0.35 mM) and a test compound, replaced in a serum-containing medium and cultivated for another 24 h. Subsequently, the number of viable cells was determined by calorimetric quantification using 3-(4,5-dimethylthiazol-2-yl)-2,5-diphenyltetrazolium bromide (MTT). The percent suppression of neuronal death by the test compound was determined by the following formula:
as §1
where ODtest is the number of cells (absorbance) in the group of addition of veratrine+test compound, ODcontrol is the number of cells (absorbance) in a control group of addition of veratrine, and ODnormal is the number of cells (absorbance) in a control (normal) group without addition of veratrine.
In addition, IC50 values indicating the effectiveness in achieving 50% suppression of neuronal death were calculated by the probit method on the basis of the result from more than one concentration.

SMILES	IC50
NC1CCc2c(-c3ccccc3)[nH]c3ccc([N+](=O)[O-])c1c23 (stereo not drawn) [Example 90, 5-amino-6-nitro-2-phenyl-1,3,4,5-tetrahydrobenz[cd]indole]	0.7 µg/mL (≈ 2.39 µM)
COC(=O)c1ccc(-c2[nH]c3c(Cl)ccc4c3c2CCC4N)cc1 (stereo not drawn) [Example 171, 5-amino-8-chloro-2-(4-methoxycarbonylphenyl)-1,3,4,5-tetrahydrobenz[cd]indole]	1.9 µg/mL (≈ 5.57 µM)
CCCN(CCC)C1CCc2c(-c3ccccc3)[nH]c3cccc1c23 (stereo not drawn) [Example 150, 5-(N,N-dipropylamino)-2-phenyl-1,3,4,5-tetrahydrobenz[cd]indole]	1.2 µg/mL (≈ 3.61 µM)
COc1ccccc1-c1[nH]c2cccc3c2c1CCC3N (stereo not drawn) [Example 184, 5-amino-2-(2-methoxyphenyl)-1,3,4,5-tetrahydrobenz[cd]indole]	0.8 µg/mL (≈ 2.87 µM)
Cl.Cn1c(-c2ccccc2Cl)c2c3c(cccc31)C(N1CCOCC1)CC2 (stereo not drawn) [Example 239, 2-(2-chlorophenyl)-1-methyl-5-morpholino-1,3,4,5-tetrahydrobenz[cd]indole hydrochloride]	2.2 µg/mL
NC1CCc2c(-c3ccccc3)[nH]c3ccc(O)c1c23 (stereo not drawn) [Example 174, 5-amino-6-hydroxy-2-phenyl-1,3,4,5-tetrahydrobenz[cd]indole]	3.4 µg/mL (≈ 12.9 µM)
COc1ccc2[nH]c(-c3ccccc3)c3c2c1C(N)CC3 (stereo not drawn) [Example 110, 5-amino-6-methoxy-2-phenyl-1,3,4,5-tetrahydrobenz[cd]indole]	1.8 µg/mL (≈ 6.47 µM)
COC(=O)C1CCN(C2CCc3c(-c4ccccc4)[nH]c4cccc2c34)CC1.Cl (stereo not drawn) [Example 225, 5-(4-methoxycarbonylpiperidino)-2-phenyl-1,3,4,5-tetrahydrobenz[cd]indole hydrochloride]	2.2 µg/mL
NC1CCc2c(-c3ccc(F)cc3)[nH]c3cccc1c23 (stereo not drawn) [Example 95, 5-amino-2-(4-fluorophenyl)-1,3,4,5-tetrahydrobenz[cd]indole]	3.1 µg/mL (≈ 11.6 µM)
Cn1c(-c2ccccc2)c2c3c(cccc31)C(N)CC2 (stereo not drawn) [Example 107, 5-amino-1-methyl-2-phenyl-1,3,4,5-tetrahydrobenz[cd]indole]	0.33 µg/mL (≈ 1.26 µM)
Cc1cc2c3c(c(-c4ccccc4)[nH]c3c1)CCC2N (stereo not drawn) [Example 113, 5-amino-7-methyl-2-phenyl-1,3,4,5-tetrahydrobenz[cd]indole]	0.7 µg/mL (≈ 2.67 µM)

Tested on: pyramidal cells in the hippocampus CA1 region
Experiment: Effectiveness in gerbil model of delayed neuronal death (damage score, 4 min ischemia)
Format: in vivo
Details: 2 mg/kg, carotid arteries 5 min before ischemia; score 0-4; ischemic control 2.9 ± 0.3; mean ± standard error (Table 3-1)
Procedure: Specifically, the cervical part of a gerbil under anesthesia by halothane inhalation was incised along the median line to expose the carotid artery on both sides, which were occuluded with clips for 4 min and thereafter brought back to patency. After suturing the incised part, the anesthetization was turned off and the animal was brought back to keeping under normal condition. Three days after loading of cerebral ischemia, the gerbil was anesthetized by administering pentobarbital, fixed by transcardiac formalin perfusion and had the brain isolated. A coronary slice including the fimbria hippocampi was prepared from the isolated brain and stained with Cresyl Violet. The pyramidal cells in the hippocampus CA1 region were examined under an optical microscope and the degree of damage was rated by the following scores: 0, no damage; 1, slight damage; 2, moderate damage; 3, significant damage; 4, total damage. Each test compound was administered through the carotid arteries 5 min before ischemia.

SMILES	Score of damage to hippocampus CA1
NC1CCc2c(-c3ccccc3)[nH]c3ccc(Br)c1c23 (stereo not drawn) [Example 87, 5-amino-6-bromo-2-phenyl-1,3,4,5-tetrahydrobenz[cd]indole]	1.9 ± 0.6

Same assay, conditions: 5 mg/kg, carotid arteries 5 min before ischemia; score 0-4; ischemic control 2.9 ± 0.3; mean ± standard error (Table 3-1)

SMILES	Score of damage to hippocampus CA1
CNC1CCc2c(-c3ccccc3)[nH]c3cccc1c23 (stereo not drawn) [Example 130, 5-(N-methylamino)-2-phenyl-1,3,4,5-tetrahydrobenz[cd]indole]	1.9 ± 0.1

Same assay, conditions: 10 mg/kg, carotid arteries 5 min before ischemia; score 0-4; ischemic control 2.9 ± 0.3; mean ± standard error (Table 3-1)

SMILES	Score of damage to hippocampus CA1
Cn1c(-c2ccccc2)c2c3c(cccc31)C(N)CC2 (stereo not drawn) [Example 107, 5-amino-1-methyl-2-phenyl-1,3,4,5-tetrahydrobenz[cd]indole]	0.5 ± 0.5

Same assay, conditions: 10 mg/kg, carotid arteries 5 min before ischemia; score 0-4; ischemic control 3.5 ± 0.4; mean ± standard error (Table 3-2)

SMILES	Score of damage to hippocampus CA1
Cl.Cn1c(-c2ccccc2F)c2c3c(cccc31)C(N1CCOCC1)CC2 (stereo not drawn) [Example 240, 2-(2-fluorophenyl)-1-methyl-5-morpholino-1,3,4,5-tetrahydrobenz[cd]indole hydrochloride]	2.1 ± 0.5
